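A five-concentration, 48-hour dose response in 96-well plates underlies each endpoint, interpolated linearly between surrounding concentrations. At the GI50, growth is halved. TGI: concentration producing complete growth inhibition.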
Assays:
Assay in all cases: DTP human tumour cell line panel, 48 h
CCRF-CEM leukemia = system: CCRF-CEM leukemia
SNB-19 CNS = system: SNB-19 CNS
SF-295 CNS = system: SF-295 CNS
HCC-2998 colon = system: HCC-2998 colon
OVCAR-3 ovarian = system: OVCAR-3 ovarian
MDA-MB-231 breast = system: MDA-MB-231 breast
IGROV1 ovarian = system: IGROV1 ovarian
SR leukemia = system: SR leukemia
SK-MEL-28 melanoma = system: SK-MEL-28 melanoma
BT-549 breast = system: BT-549 breast
MDA-MB-435 = system: MDA-MB-435
A498 renal = system: A498 renal
OVCAR-4 ovarian = system: OVCAR-4 ovarian
RPMI-8226 leukemia = system: RPMI-8226 leukemia
HCT-15 colon = system: HCT-15 colon
MCF7 breast = system: MCF7 breast
TK-10 renal = system: TK-10 renal
UACC-62 melanoma = system: UACC-62 melanoma
HS 578T breast = system: HS 578T breast
MOLT-4 leukemia = system: MOLT-4 leukemia
UACC-257 melanoma = system: UACC-257 melanoma
UO-31 renal = system: UO-31 renal
LOX IMVI melanoma = system: LOX IMVI melanoma
NCI-H522 lung = system: NCI-H522 lung
SN12C renal = system: SN12C renal
NCI-H226 lung = system: NCI-H226 lung
HL-60(TB) leukemia = system: HL-60(TB) leukemia
SW-620 colon = system: SW-620 colon
ACHN renal = system: ACHN renal
HT29 colon = system: HT29 colon
RXF 393 renal = system: RXF 393 renal
PC-3 prostate = system: PC-3 prostate
MALME-3M melanoma = system: MALME-3M melanoma
SK-OV-3 ovarian = system: SK-OV-3 ovarian
M14 melanoma = system: M14 melanoma
SNB-75 CNS = system: SNB-75 CNS
HCT-116 colon = system: HCT-116 colon
U251 CNS = system: U251 CNS
CAKI-1 renal = system: CAKI-1 renal
SF-268 CNS = system: SF-268 CNS
KM12 colon = system: KM12 colon
OVCAR-8 ovarian = system: OVCAR-8 ovarian
K-562 leukemia = system: K-562 leukemia
NCI-H460 lung = system: NCI-H460 lung
786-0 renal = system: 786-0 renal
NCI/ADR-RES ovarian = system: NCI/ADR-RES ovarian
SK-MEL-2 melanoma = system: SK-MEL-2 melanoma
A549 NSCLC = system: A549 NSCLC
SF-539 CNS = system: SF-539 CNS
DU-145 prostate = system: DU-145 prostate
COLO 205 colon = system: COLO 205 colon
SK-MEL-5 melanoma = system: SK-MEL-5 melanoma
HOP-62 NSCLC = system: HOP-62 NSCLC
OVCAR-5 ovarian = system: OVCAR-5 ovarian
NCI-H23 lung = system: NCI-H23 lung
T-47D breast = system: T-47D breast
HOP-92 NSCLC = system: HOP-92 NSCLC

COc1cc[nH]c1/C=C1\C(=O)Nc2ccc(F)c(C#CC3(O)CCOCC3)c21
GI50 (CCRF-CEM leukemia): 0.713 µM | TGI (CCRF-CEM leukemia): 1.86 µM | GI50 (SNB-19 CNS): 1.02 µM | TGI (SNB-19 CNS): > 19.5 µM | GI50 (SF-295 CNS): 0.849 µM | TGI (SF-295 CNS): 16.4 µM | GI50 (HCC-2998 colon): 0.676 µM | TGI (HCC-2998 colon): 2.59 µM | GI50 (OVCAR-3 ovarian): 0.911 µM | TGI (OVCAR-3 ovarian): 2.25 µM | GI50 (MDA-MB-231 breast): 0.885 µM | TGI (MDA-MB-231 breast): > 25 µM | GI50 (IGROV1 ovarian): 0.86 µM | TGI (IGROV1 ovarian): > 7.18 µM | GI50 (SR leukemia): 0.447 µM | TGI (SR leukemia): 2.75 µM | GI50 (SK-MEL-28 melanoma): 0.677 µM | TGI (SK-MEL-28 melanoma): 3.11 µM | GI50 (BT-549 breast): 0.556 µM | TGI (BT-549 breast): 1.37 µM | GI50 (MDA-MB-435): 0.57 µM | TGI (MDA-MB-435): 4.05 µM | GI50 (A498 renal): 0.573 µM | TGI (A498 renal): 1.67 µM | GI50 (OVCAR-4 ovarian): 2.34 µM | TGI (OVCAR-4 ovarian): 14.7 µM | GI50 (RPMI-8226 leukemia): 0.76 µM | TGI (RPMI-8226 leukemia): 1.76 µM | GI50 (HCT-15 colon): 0.481 µM | TGI (HCT-15 colon): > 15.3 µM | GI50 (MCF7 breast): 0.758 µM | TGI (MCF7 breast): 4.68 µM | GI50 (TK-10 renal): 0.507 µM | TGI (TK-10 renal): 2.92 µM | GI50 (UACC-62 melanoma): 0.375 µM | TGI (UACC-62 melanoma): 0.929 µM | GI50 (HS 578T breast): 0.528 µM | TGI (HS 578T breast): 3.56 µM | GI50 (MOLT-4 leukemia): 0.679 µM | TGI (MOLT-4 leukemia): 2.92 µM | GI50 (UACC-257 melanoma): 0.749 µM | TGI (UACC-257 melanoma): 2.76 µM | GI50 (UO-31 renal): 0.512 µM | TGI (UO-31 renal): > 6.99 µM | GI50 (LOX IMVI melanoma): 0.537 µM | TGI (LOX IMVI melanoma): 1.77 µM | GI50 (NCI-H522 lung): 1.08 µM | TGI (NCI-H522 lung): 4.53 µM | GI50 (SN12C renal): 0.615 µM | TGI (SN12C renal): > 25 µM | GI50 (NCI-H226 lung): 0.498 µM | TGI (NCI-H226 lung): 2.2 µM | GI50 (HL-60(TB) leukemia): 0.686 µM | TGI (HL-60(TB) leukemia): 1.6 µM | GI50 (SW-620 colon): 0.619 µM | TGI (SW-620 colon): > 8.38 µM | GI50 (ACHN renal): 0.487 µM | TGI (ACHN renal): > 25 µM | GI50 (HT29 colon): 0.501 µM | TGI (HT29 colon): 2.81 µM | GI50 (RXF 393 renal): 0.305 µM | TGI (RXF 393 renal): 1.01 µM | GI50 (PC-3 prostate): 0.669 µM | TGI (PC-3 prostate): 6.52 µM | GI50 (MALME-3M melanoma): 1.22 µM | TGI (MALME-3M melanoma): 5.81 µM | GI50 (SK-OV-3 ovarian): 0.441 µM | TGI (SK-OV-3 ovarian): > 25 µM | GI50 (M14 melanoma): 0.664 µM | TGI (M14 melanoma): 4.28 µM | GI50 (SNB-75 CNS): 0.338 µM | TGI (SNB-75 CNS): 1.94 µM | GI50 (HCT-116 colon): 0.538 µM | TGI (HCT-116 colon): > 25 µM | GI50 (U251 CNS): 0.519 µM | TGI (U251 CNS): 5.43 µM | GI50 (CAKI-1 renal): 0.011 µM | GI50 (SF-268 CNS): 0.714 µM | TGI (SF-268 CNS): 2.03 µM | GI50 (KM12 colon): 0.0104 µM | TGI (KM12 colon): 1.92 µM | GI50 (OVCAR-8 ovarian): 0.867 µM | TGI (OVCAR-8 ovarian): > 25 µM | GI50 (K-562 leukemia): 1.36 µM | TGI (K-562 leukemia): > 25 µM | GI50 (NCI-H460 lung): 0.637 µM | TGI (NCI-H460 lung): 2.7 µM | GI50 (786-0 renal): 0.824 µM | TGI (786-0 renal): > 25 µM | GI50 (NCI/ADR-RES ovarian): 0.885 µM | TGI (NCI/ADR-RES ovarian): 8.42 µM | GI50 (SK-MEL-2 melanoma): 0.47 µM | TGI (SK-MEL-2 melanoma): 2.14 µM | GI50 (A549 NSCLC): 0.536 µM | TGI (A549 NSCLC): 2.25 µM | GI50 (SF-539 CNS): 0.489 µM | TGI (SF-539 CNS): 1.03 µM | GI50 (DU-145 prostate): 0.806 µM | TGI (DU-145 prostate): > 25 µM | GI50 (COLO 205 colon): 0.408 µM | TGI (COLO 205 colon): 1.13 µM | GI50 (SK-MEL-5 melanoma): 0.497 µM | TGI (SK-MEL-5 melanoma): 1.19 µM | GI50 (HOP-62 NSCLC): 0.878 µM | TGI (HOP-62 NSCLC): > 10.4 µM | GI50 (OVCAR-5 ovarian): 0.714 µM | TGI (OVCAR-5 ovarian): > 7.16 µM | GI50 (NCI-H23 lung): 0.609 µM | TGI (NCI-H23 lung): 2.61 µM | GI50 (T-47D breast): 1.1 µM | TGI (T-47D breast): 16 µM | GI50 (HOP-92 NSCLC): 0.678 µM | TGI (HOP-92 NSCLC): 2.02 µM

From PubChem BioAssay (NCI)
